Assay results reported in US20030211605A1, “Derivation of midbrain dopaminergic neurons from embryonic stem cells” (priority 2003, published 2003).

What was measured:
Format in all cases: cell-based, mouse
ES-derived neuron = test: Patch clamp recording of synaptic activity of differentiated ES-derived neurons; settings: 10 mM, pressure application; 13 days of differentiation; FIG. 9B/9C
ES cells [1] = test: Comparison of N2 and N3FL media: total, TUJ1+ and TH+ cells after differentiation; settings: for phenotype of the ES cell derived population: variation of concentration in the medium
ES cells [2] = test: Yield of TH+ neurons (TH/TUJ1 immunocytochemistry) in differentiated ES cell cultures; settings: SHH 500 ng/ml, FGF8 100 ng/ml, cAMP 1 mM, ascorbic acid 200 μM, added at different stages; FIG. 4
Method: Specifically, the cells were dissociated by adding a solution of 0.05% typsin and 0.04% EDTA to the plates and incubating at 37° C. for 5 minutes. The dissociated cells were plated on tissue culture plastic or glass coverslips at a concentration of 1.5-2×10^6 cm^2 in serum free N2 medium supplemented with 1 μg/ml of laminin and 10 ng/ml of basic fibroblast growth factor (bFGF, R&D Systems, Minneapolis, Minn.). The medium was also supplemented with murine aminoterminal fragment SHH (500 ng/ml); murine FGF8 isoform b (100 ng/ml, both from R& D System); and ascorbic acid (200 μM, Sigma). Control cultures were treated identically except that no SHH or FGF8 was applied during cell proliferation.
Differentiation (stage 5) was induced using a modification of Okabe et al., using N2 medium instead of N3FL medium. […]
Uniform random sampling procedure were used for cell counts and quantified using the fractionator technique (Gundersen et al., (1988) “Some new, simple and efficient stereological methods and their use in pathological research and diagnosis,” APIMS 96:379-394). […] Data expressed as mean±SEM.
Yield of TH+ neurons is expressed as a percentage of all TUJ1+ neurons.

Molecule	response to application to the dendrites of a differentiated neuron (ES-derived neuron)	phenotype of the ES cell derived population (ES cells [1])	also measured
NCCCC(=O)O [GABA, gamma amino butyric acid]	inward current		
O=S(=O)(O)CCN1CCN(CCO)CC1 [HEPES, 4-(2-hydroxyethyl)-1-piperazine-ethanesulfonic acid]			percentage of TUJ1 and TH+ cells (ES cells [1]; substitution of bicarbonate (N2) by HEPES (N3FL), FIG. 8): dramatically reduced
O=C1O[C@H]([C@@H](O)CO)C(O)=C1O [ascorbic acid]			yield of TH+ neurons (percentage of all TUJ1+ neurons) (ES cells [2]): increase the yield of TH+ neurons
N[C@@H](CCC(=O)O)C(=O)O [glutamate]	inward current		
NC(=O)CC[C@H](N)C(=O)O [glutamine]		did not significantly affect	
transferrin		did not significantly affect	
